Measurements taken from patent US12612424B2, “HPK1 inhibitors and uses thereof” (Regor Pharmaceuticals, Inc., priority 2019, dated 2026).

Assays:
[1] = tested on: Human Pan T Cell (IL-2 release); test: IL2 released by human pan T cell upon anti-CD3/anti-CD28 stimulation (ELISA); assay type: cell-based; conditions: human pan T cells; for maximal fold induction: 48 h, response of IL-2 over DMSO control, anti-CD3/anti-CD28, 48 hours, ELISA, read-out: IL-2 Max Fold Response
Source text: For example, Example 5 describes such a functional assay for determining the effect of an HPK1 inhibitor on IL-2 & IFN-γ release upon stimulation of Pan T cells. The secreted IL-2 & IFN-γ can be measured/quantified by standard ELISA assay. Briefly, pan T cells can be isolated from peripheral blood (PB) mononuclear cells (MNCs), or PBMC, using commercially available kits, such as MACS (Miltenyl Biotec) Pan T isolation kit (Cat. No. 130-096-535). Primary human pan-T cells include CD4 and CD8 T cells as well as some gamma/delta T cell subsets. The pan-T cells can be isolated using the negative immunomagnetic separation technique without the use of columns.
Isolated pan-T cells can be dispensed into 96-well plates at 100,000 cells/well, and stimulated with immobilized anti-CD3 antibody and soluable anti-CD28 antibody, or PMA/Ionomycin as the positive control (or culture media as the negative control). Different concentrations of test compounds can be added to the cells to assess the compound effect on cytokine secretion following TCR-stimulation/CD28 co-stimulation. Stimulated cells are incubated for 2 more days, before the supernatant (containing secreted cytokines by pan-T cells) is collected from each well for ELISA assay and quantitation of IL-2 and IFN-γ.
Biology Example 8 Compound Efficacy Study on IL2 & IFN-γ Released by Human Pan T Cell
This example is an assay method that can be used to determine compound effects on IL2 & IFN-γ release using pan T cells and ELISA assay format.
3. Procedures Procedures for Pan T isolation and Reagent preparation (Day 0): 1. Cell Growth Medium: • RPMI1640: ATCC, Cat #30-2001 • 10% FBS: Gibco, Cat #10099141 • 1% Pen-Strep: Gibco, Cat #15140122 • 1% Non-essential amino: Gibco, Cat #11140050 • Beta-Mercaptoethanol: Gibco, Cat #21985023 2. Pan T Isolation Buffer Preparation:
Prepare a solution containing phosphate-buffered saline (PBS), pH 7.2, 0.5% bovine serum albumin (BSA), and 2 mM EDTA by diluting MACS® BSA Stock Solution (#130-091-376) 20 times with autoMACS® Rinsing Solution. Keep buffer at 4° C. Degas buffer before use, as air bubbles could block the column.
3. Thawing of Frozen PBMC • 1) Pre-heat medium at 37° C. water bath. • 2) Rapidly thaw cells in 37° C. water bath. • 3) Add the pre-warmed medium into 15 mL tube. Transfer cells to the tube. • 4) 300×g centrifuge for 8 min. (centrifuge increase 0, decrease 0). • 5) Wash the PBMC using Rinsing buffer. • 6) Centrifuge PBMC at 300×g for 8 min, wash it twice (centrifuge increase 9, decrease 1). • 7) Resuspend the cells with Pan T cells isolation buffer and count cells number. 4. Pan T Cells Isolation: Cell Staining with Microbead Cocktail • 1) Prepare cells and determine cell number. Filter cells by 70 μm cell strainer. • 2) Resuspend cell pellet in 40 μL of buffer per 10^7 total cells. • 3) Add 10 μL of Pan T Cell Biotin-Antibody Cocktail per 10^7 total cells. • 4) Mix well and incubate for 10 minutes in the refrigerator (ice). • 5) Add 30 μL of buffer per 10^7 total cells. • 6) Add 20 μL of Pan T Cell MicroBead Cocktail per 10^7 total cells. • 7) Mix well and incubate for 15 minutes in the refrigerator (ice). • 8) Proceed to subsequent magnetic cell separation. • Note: a. Work fast, keep cells cold, and use pre-cooled solutions (2-8° C.). b. Volumes for magnetic labeling given are for up to 10′ total cells. When working with fewer cells, use the same volumes as indicated. c. When working with higher cell numbers, scale up all reagent volumes and total volumes accordingly. d. For optimal performance it is important to obtain a single-cell suspension before magnetic labeling. Subsequent Manual Cell Separation: • 1) Place LS Column in the magnetic field of a suitable MACS Separator. For details refer to the respective MACS Column data sheet. • 2) Prepare column by rinsing with 3 mL of buffer. • 3) Apply cell suspension onto the column. Collect flow-through, which represents the enriched T cells. • 4) Wash column with 5 mL of buffer. […]

[2] = target: HPK1 (Homo sapiens, UniProt Q92918); test: HPK1 biochemical assay (ADP-GLO Kinase Assay); conditions: B*: testing performed in a first testing facility; read-out: HPK1 IC50 (nM) Relative, B*
Chain of HPK1 (Q92918 whole entry): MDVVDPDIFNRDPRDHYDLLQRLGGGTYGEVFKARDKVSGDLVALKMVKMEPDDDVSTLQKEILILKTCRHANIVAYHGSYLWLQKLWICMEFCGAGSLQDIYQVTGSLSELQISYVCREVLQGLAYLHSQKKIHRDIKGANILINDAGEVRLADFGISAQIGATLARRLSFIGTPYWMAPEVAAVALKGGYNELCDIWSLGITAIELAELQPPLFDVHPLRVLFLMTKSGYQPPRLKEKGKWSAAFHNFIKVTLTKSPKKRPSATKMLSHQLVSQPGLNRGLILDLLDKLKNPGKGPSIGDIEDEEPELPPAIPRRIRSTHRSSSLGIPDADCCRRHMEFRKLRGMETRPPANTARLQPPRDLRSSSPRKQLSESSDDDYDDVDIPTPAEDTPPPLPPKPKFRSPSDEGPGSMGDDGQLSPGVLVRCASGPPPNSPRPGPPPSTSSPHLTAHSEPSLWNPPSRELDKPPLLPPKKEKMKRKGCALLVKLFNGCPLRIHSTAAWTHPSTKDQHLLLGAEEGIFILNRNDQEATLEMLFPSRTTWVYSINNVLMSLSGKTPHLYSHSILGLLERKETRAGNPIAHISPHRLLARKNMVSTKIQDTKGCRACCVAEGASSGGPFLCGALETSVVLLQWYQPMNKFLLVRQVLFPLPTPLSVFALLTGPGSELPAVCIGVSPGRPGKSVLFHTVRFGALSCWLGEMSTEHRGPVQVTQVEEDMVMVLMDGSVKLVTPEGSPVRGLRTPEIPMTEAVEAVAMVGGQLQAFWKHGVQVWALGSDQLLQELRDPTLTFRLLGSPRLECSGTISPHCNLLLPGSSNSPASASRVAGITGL
In short: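 HPK1 (0.6 ng/μL final) activity was followed with MBP substrate and 10 μM ATP in Tris pH 7.5/MgCl2/BSA/DTT buffer, measured by ADP-Glo luminescence. Compounds were tested as 3-fold dilutions from 10 μM. IC50 came from a three-parameter logistic fit, with inhibition normalised to high/low controls.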

[3] = target: T1, JAK3 (Homo sapiens, UniProt P52333); test: JAK3 biochemical assay (ADP-GLO Kinase Assay); conditions: for IC50: B*: testing performed in a first testing facility, read-out: JAK3 IC50 (nM) Relative, B*; for JAKs/HPK1 IC50 Ratio, B*: ratio of JAK3 IC50 to HPK1 IC50, first testing facility
T1 construct: purchased Thermo fisher PV3855
T1 sequence (P52333 781-1124 limits assumed): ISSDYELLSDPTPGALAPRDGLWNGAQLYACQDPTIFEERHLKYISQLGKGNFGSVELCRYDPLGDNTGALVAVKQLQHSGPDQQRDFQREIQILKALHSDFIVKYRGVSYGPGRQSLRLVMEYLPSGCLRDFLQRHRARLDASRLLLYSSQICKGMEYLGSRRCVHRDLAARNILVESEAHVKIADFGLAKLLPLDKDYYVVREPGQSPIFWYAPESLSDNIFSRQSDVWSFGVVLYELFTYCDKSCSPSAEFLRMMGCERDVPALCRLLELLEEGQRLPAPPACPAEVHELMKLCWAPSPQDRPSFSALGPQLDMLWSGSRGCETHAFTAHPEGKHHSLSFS
In short: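 Human JAK3 (0.78 ng) with 0.2 μg/μL Poly(E4Y1) and 4 μM ATP in 40 mM Tris pH 7.5, 20 mM MgCl2, 0.1 mg/ml BSA, 50 μM DTT, 1% DMSO; 60 min at 25 °C. ADP formed read by ADP-Glo luminescence. 10-dose 3-fold series from 10 μM; IC50 by three-parameter logistic fit.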

Row | Structure (SMILES) | IC50 [2] | EC50 ([1]; Homo sapiens, T-cell, IL-2 response, calculated with GraphPad Prism) | IC50 [3] | JAKs/HPK1 IC50 Ratio, B* [3] | maximal fold induction ([1]; Homo sapiens, T-cell) | EC2x (nM) ([1]; concentration of compound that gives 200% IL-2 response (2 folds) over DMSO control)
1 | COc1cc2c(cc1Nc1ncc(Cl)c(-n3cc(F)c4ccccc43)n1)CN(C)CC2 [Example 11, N-(5-Chloro-4-(3-fluoro-1H-indol-1-yl)pyrimidin-2-yl)-6-methoxy-2-methyl-1,2,3,4-tetrahydroisoquinolin-7-amine] | ≤ 100 nM | – | – | – | < 2 | –
2 | COc1cc2c(cc1Nc1ncc(Cl)c(N3CCc4ccccc43)n1)CN(CCO)CC2 [Example 27] | ≤ 100 nM | > 1000 nM | – | – | > 2 | + (“+”, for greater than 1 μM)
3 | COc1ccc2c(c1)C(C(=O)O)CN2c1nc(Nc2cc3c(cc2OC)CCN(C)C3)ncc1Cl (centres unmarked) [Example 106, 1-(5-Chloro-2-((6-methoxy-2-methyl-1,2,3,4-tetrahydroisoquinolin-7-yl)amino)pyrimidin-4-yl)-5-methoxyindoline-3-carboxylic acid] | ≤ 100 nM | – | ≤ 100 nM | 11 | – | –
4 | CC(C)Oc1cc2c(cc1Nc1ncc(Cl)c(N3CC(C(=O)O)c4ccccc43)n1)CN(C)CC2 (centres unmarked) [Example 111, 1-(5-Chloro-2-((6-isopropoxy-2-methyl-1,2,3,4-tetrahydroisoquinolin-7-yl)amino)pyrimidin-4-yl)indoline-3-carboxylic acid] | ≤ 100 nM | – | > 1000 nM | >236 | – | –
5 | COC(=O)c1cn(-c2nc(Nc3cc4c(cc3OC)CCN(C)C4)ncc2Cl)c2ccccc12 [Example 114] | ≤ 100 nM | – | > 1000 nM | >118 | – | –
6 | COc1cc2c(cc1Nc1ncc(Cl)c(N3CC(C)(C(=O)O)c4ccccc43)n1)CN(C)CC2 (centres unmarked) [Example 117] | ≤ 100 nM | – | ≤ 100 nM | 5 | – | –
7 | COc1cc2c(cc1Nc1ncc(Cl)c(N3CC(CO)(C(=O)O)c4ccccc43)n1)CN(C)CC2 (centres unmarked) [Example 124] | ≤ 100 nM | – | ≤ 100 nM | 20 | – | –
8 | COc1cc2c(cc1Nc1ncc(Cl)c(N3CC(C)(C(=O)O)c4ccccc43)n1)CNCC2 (centres unmarked) [Example 127, 1-(5-Chloro-2-((6-methoxy-1,2,3,4-tetrahydroisoquinolin-7-yl)amino)pyrimidin-4-yl)-3-methylindoline-3-carboxylic acid] | ≤ 100 nM | – | ≤ 100 nM | 4 | – | –
9 | CCC(CC)COC(=O)Cc1cn(-c2nc(Nc3cc4c(cc3OC)CCN(C)C4)ncc2Cl)c2ccccc12 [Example 131, 2-Ethylbutyl 2-(1-(5-chloro-2-((6-methoxy-2-methyl-1,2,3,4-tetrahydroisoquinolin-7-yl)amino)pyrimidin-4-yl)-1H-indol-3-yl)acetate] | 100 to 500 nM | – | > 1000 nM | >82 | – | –
10 | CCOC(=O)Cc1cn(-c2nc(Nc3cc4c(cc3OC)CCN(C)C4)ncc2Cl)c2ccccc12 [Example 132] | ≤ 100 nM | – | > 1000 nM | >426 | – | –
11 | COc1cc2c(cc1Nc1ncc(Cl)c(-n3cc(C4(C(=O)O)CC4)c4ccccc43)n1)CN(C)CC2 [Example 143] | ≤ 100 nM | – | > 1000 nM | 433 | – | –

Second part, led by results:

Row | IC50 [2] | EC50 ([1]; Homo sapiens, T-cell, IL-2 response, calculated with GraphPad Prism) | IC50 [3] | JAKs/HPK1 IC50 Ratio, B* [3] | Structure (SMILES) | maximal fold induction ([1]; Homo sapiens, T-cell) | EC2x (nM) ([1]; concentration of compound that gives 200% IL-2 response (2 folds) over DMSO control)
12 | ≤ 100 nM | – | > 1000 nM | 250 | COc1cc2c(cc1Nc1ncc(Cl)c(-n3cc(C(C(=O)O)C(F)(F)F)c4ccccc43)n1)CN(C)CC2 (centres unmarked) [Example 144] | – | –
13 | ≤ 100 nM | – | > 1000 nM | >111 | COc1nc2c(cc1Nc1ncc(Cl)c(N3CC(C)(CC(=O)O)c4ccccc43)n1)CN(C)CC2 (centres unmarked) [Example 155] | – | –
14 | ≤ 100 nM | – | > 1000 nM | 421 | COc1cc2c(cc1Nc1ncc3cc(C(=O)O)n(-c4ccccc4)c3n1)CN(C)CC2 [Example 165, 2-((6-Methoxy-2-methyl-1,2,3,4-tetrahydroisoquinolin-7-yl)amino)-7-phenyl-7H-pyrrolo[2,3-d]pyrimidine-6-carboxylic acid] | – | –
15 | 100 to 500 nM | – | > 1000 nM | – | COc1cc2c(cc1Nc1ncc3c(n1)n(-c1ccccc1)c(=O)n3C)CN(C)CC2 [Example 166, 2-((6-Methoxy-2-methyl-1,2,3,4-tetrahydroisoquinolin-7-yl)amino)-7-methyl-9-phenyl-7,9-dihydro-8H-purin-8-one] | – | –
16 | ≤ 100 nM | – | > 1000 nM | 737 | COc1cc2c(cc1Nc1ncc(Cl)c(N3CC(C(=O)O)C4(CCOCC4)C3)n1)CN(C)CC2 (centres unmarked) [Example 168] | – | –
17 | 100 to 500 nM | – | > 1000 nM | 77 | COc1cc2c(cc1Nc1ncc(Cl)c(N3CCC4(COC4)C3)n1)CN(C)CC2 [Example 170, N-(5-chloro-4-(2-oxa-6-azaspiro[3.4]octan-6-yl)pyrimidin-2-yl)-6-methoxy-2-methyl-1,2,3,4-tetrahydroisoquinolin-7-amine] | – | –
18 | ≤ 100 nM | – | > 1000 nM | 121 | COc1cc2c(cc1Nc1ncc3ccc(=O)n(-c4ccccc4)c3n1)CN(C)CC2 [Example 171, 2-((6-Methoxy-2-methyl-1,2,3,4-tetrahydroisoquinolin-7-yl)amino)-8-phenylpyrido[2,3-d]pyrimidin-7(8H)-one] | – | –
